Assay results taken from publication PMC9332833 (Cancers, 2022).

What was measured:
K562 cells [1] = experiment: MTT viability test, K562; format: cell-based; conditions: Homo sapiens, K562; MTT, 48 h
Procedure: CML cell line K562 CCL-243™ (BCR-ABL^+) was purchased from the ATCC® (Manassas, VA, USA). Cells were grown in RPMI 1640 medium containing HEPES (Biowest, Nuaillé, France) with 2 mM GlutaMAX (Gibco, Grand Island, NY, USA), supplemented with 10% fetal bovine serum (Sigma-Aldrich, St. Louis, MO, USA) and […] (Gibco, Grand Island, NY, USA) and 0.1 µM Vincristine (for K562-MDR1).
Cells were seeded in 96-well plates; after 24 h, medium with the appropriate drug concentration was added to each well. After 48 h, Tetrazolium Bromide (Sigma-Aldrich, St. Louis, MO, USA) was added to each well for 2–3 h. After that, cells were lysed and formazan crystals were dissolved. Absorbance was read using an iMark Microplate absorbance reader (Bio-Rad, Hercules, CA, USA). Results were calculated relative to cells treated with DMSO only. […]
Cells were seeded in 96-well plates at 7 × 10^3 cells/well in 50 µL of complete medium (for K562 or K562-MDR1) or at 50 × 10^3 cells/well in 50 µL of complete medium (CD34+ cells). After 24 hours, 50 µL of medium with the appropriate drug concentration was added to each well. The final DMSO concentration per well was 1% for K562 and K562-MDR1 and 0.1% for CD34+ cells. After 48 hours, 20 µL of Tetrazolium Bromide (Sigma-Aldrich, St. Louis, MO, USA) at a concentration of 5 mg/mL was added to each well. Cells were incubated for 2-3 hours in a cell culture incubator, and then 10% SDS with 1% HCl was added to each well to lyse the cells and dissolve the formazan crystals. Plates were […]

K562 cells [2] = experiment: Immunoblotting of CML signaling proteins; format: cell-based, human; conditions: 5 µM
Procedure: K562 cells were plated at a concentration of 1–2 × 10^5 cells/mL in a 6-well plate. After 24 h of pre-incubation, BK124.1 or DMSO was added and cells were incubated for a specified time, after which cells were lysed with RIPA buffer (Sigma-Aldrich, St. Louis, MO, USA) and supplemented with c0mplete Protease Inhibitor (Roche, Basel, Switzerland) and PhosSTOP (Roche, Basel, Switzerland). Protein concentration was measured using Pierce BCA Protein Assay Kit (Thermo Fisher Scientific, Waltham, MA, USA) and adjusted to contain equal amount of protein (20 µg) in equal volume. Protein lysates were separated by SDS-PAGE electrophoresis (TGX StainFree, Bio-Rad, Hercules, CA, USA) and transferred onto the PVDF membranes (AppliChem GmbH ITW Reagents, Darmstadt, Germany). Membranes were blocked with 5% non-fat powdered milk, then incubated with primary antibodies overnight at 4 °C followed by HRP-conjugated antibodies (Supplementary Methods). Blots were developed using Clarity Western ECL Substrate and analyzed with ChemiDoc XRS+ (Bio-Rad, Hercules, CA, USA). Protein levels normalized to controls were determined using ImageJ software.
K562 cells were plated at a concentration of 1.5 × 10^5 cells/mL in a 6-well plate. After 24 h pre-incubation, BK124.1 in DMSO was added and incubated for the specified time. Next, cytosolic and nuclear cell fractions were separated as described. […]

[3] = Stability of BK124.1 concentrate for injection; format: physicochemical; conditions: 1 mg BK124.1 in 50% Solutol HS 15/50% ethanol, 30-36 °C
Source text: Additional file 2: Supplementary methods
The antibodies (Ab) used in the flow cytometry and immunoblotti ng experiments are listed according to the targeted protein and the vendor. Antibodies: BD Transduction Laboratories - p38 (ref. 612288), p-p38 (ref. 612289); Cell Signalling Technologies - c-Abl (ref. 2862), Akt (pan) (C67E7) (ref. 4691), STAT5 […]
(ref. 9102); Santa Cruz Biotechnology - Lamin B1 (A11) (ref. sc-377000), JNK, (ref. sc-7345), p-JNK (ref. sc-6254); Sigma - α-tubulin (ref. T-6074). Biolegend, San Diego, CA, USA - CD34 (CD34-APC), CD38 (anti- […]
BK124.1 preparation for injection
In the first step, 50 µL of Solutol HS 15 and 50 µL of anhydrous ethanol 99.8% were added to 1 mg of BK124.1, to obtain a solution of 50% Solutol HS 15/50% ethanol. This solution was shaken (1-2 h) at 30-40 °C until BK124.1 was completely dissolved. This solution was stable for 48 hours at temperatures between 30-36 °C. This concentrate is sticky, has poor filtration and portioning properties, and so cannot be administered intravenously or intraperitoneally without dilution. Therefore, in the second step, the prepared concentrate was diluted with aqua pro injectione to obtain a concentration of 10% Solutol HS 15/10% ethanol. […]

[4] = Body and organ weights in K562 xenograft mice; conditions: for Brain weight / Heart weight / Kidneys weight / Liver weight / Lung weight / Splean weight: mean ± SD, N=4
Procedure: Eight-week-old female NOD.Cg-Prkdcscid Il2rgtm1Wjl/SzJ NSG mice (Jackson Laboratory, Bar Harbor, ME, USA) were injected subcutaneously into the dorsal fold with 1 × 10^6 K562 cells of the human chronic myeloid leukemia (CML) line in a final volume of 100 µL (0.5% of the mouse weight). On day 3 after cell administration, mice were randomly assigned to each group, and on days 4–17 of the experiment, the selected tested compounds and control solutions were administered intraperitoneally or orally. During the experiment, subcutaneous tumors and body weight were measured daily. Tumor growth during the experiment was measured with an electronic display caliper. The theoretical tumor volume [mm], was calculated according to the formula (a^2 × b) * 0.5, where a is the shorter tumor axis [mm] and b is the longer tumor axis [mm]. On day 26, the experiment was terminated: blood was collected and analyzed for cellular morphology and standard biochemistry metabolites. Tumors were weighed.
Control and treated mice were grouped according to the tested compounds and the scheme of their administrations (doses, administration frequencies, routes of administration) in the CML xenogeneic model obtained by subcutaneous transplantation of 1 × 10^6 cells of the human CML blast line K562 into mice NOD.Cg-Prkdcscid Il2rgtm1Wjl/SzJ (NSG).
Hydroxyurea K562 500 mg/kg, IP Aqua pro 1 x daily 8

Q: With `CCC12C(=O)C(CC)(C(c3ccccc3)=C1c1ccccc1)C1C(=O)N(CC(O)CNC(C)C)C(=O)C12` (stereo not drawn) [BK124.1, 4-[2-hydroxy-3-(propan-2-ylamino)propyl]-1,7-diethyl-8,9-diphenyl-4-azatricyclo [5.2.1.02,6]dec-8-ene-3,5,10-trione] as the compound, how does the IC50 (K562 cells [1]) read?
A: 2500 nM

Q: And the “Level of BCR-ABL1, STAT5, AKT, mTOR and NF-κB proteins” value (K562 cells [2]; first changes after 4 and 8 h)?
A: decrease in the level

Q: And the “Level of FOXO3A and p21waf1/cip1 proteins” value (K562 cells [2]; from 4 h, maximum after 8 h, mainly nuclear fraction)?
A: increase in the level

Q: What about the “Time the solution was stable” value [3] of the same compound?
A: 48 h

Q: And the Brain weight ([4]; 20 mg/kg IP daily 14 days)?
A: 0.47 ± 0.02 g

Q: And the Heart weight ([4]; 20 mg/kg IP daily 14 days)?
A: 0.10 ± 0.00 g

Q: What about the Kidneys weight ([4]; 20 mg/kg IP daily 14 days) of the same compound?
A: 0.26 ± 0.03 g

Q: What about the Liver weight ([4]; 20 mg/kg IP daily 14 days) of the same compound?
A: 1.09 ± 0.10 g

Q: What about the Lung weight ([4]; 20 mg/kg IP daily 14 days) of the same compound?
A: 0.24 ± 0.10 g

Q: What about the Splean weight ([4]; 20 mg/kg IP daily 14 days) of the same compound?
A: 0.03 ± 0.02 g

Q: What about the Brain weight ([4]; 30 mg/kg IP daily 14 days) of the same compound?
A: 0.47 ± 0.01 g

Q: What about the Heart weight ([4]; 30 mg/kg IP daily 14 days) of the same compound?
A: 0.10 ± 0.02 g

Q: What about the Kidneys weight ([4]; 30 mg/kg IP daily 14 days) of the same compound?
A: 0.28 ± 0.02 g

Q: And the Liver weight ([4]; 30 mg/kg IP daily 14 days)?
A: 1.27 ± 0.11 g

Q: What about the Lung weight ([4]; 30 mg/kg IP daily 14 days) of the same compound?
A: 0.34 ± 0.02 g

Q: What about the Splean weight ([4]; 30 mg/kg IP daily 14 days) of the same compound?
A: 0.03 ± 0.01 g

Q: What about the “Morphology or weight of internal organs (liver, spleen, kidneys, lungs, heart) versus untreated controls” value ([4]; doses as in Table S3) of the same compound?
A: no changes

Q: What about the “Total body weight course” value ([4]; doses as in Table S3, control mice gained mass in the last 5 days) of the same compound?
A: No such increase occurred
